# Results: PMC4058769 (Organic & biomolecular chemistry, 2009)
# Experiments:
# Type in all cases: cell-based
# [1] = test system: HeLa (human cervix carcinoma); experiment: cytotoxicity assay, HeLa
# [2] = test system: K-562 (human leukaemia); experiment: antiproliferative assay, K-562
# [3] = test system: PC-3 cells (prostate cancer); experiment: in vitro cytotoxic assay, PC-3
# [4] = test system: MCF-7 cells (breast cancer); experiment: in vitro cytotoxic assay, MCF-7
# [5] = test system: L-929 (mouse fibroblasts); experiment: antiproliferative assay, L-929
structure (smiles),measurement,setting,value
"CCC(=O)O[C@H]1[C@H](C)O[C@@H](O[C@H]2[C@H](N(C)C)[C@@H](O)[C@H](O[C@H]3[C@@H](CC=O)C[C@@H](C)[C@@H](O)/C=C/C=C/C[C@@H](C)OC(=O)C[C@@H](O)[C@@H]3OC)O[C@@H]2C)C[C@@]1(C)O [compound 1, leucomycin A7]",cytotoxic activity in HeLa (in words),[1],not active at all
same,CC50,"[1]; read-out: HeLa CC50, cytotoxicity, HeLa human cervix carcinoma",> 66 µM
same,antiproliferative activity in K-562 (in words),[2],not active at all
same,GI50,"[2]; read-out: K-562 GI50, antiproliferative activity, K-562 human leukaemia",> 66 µM
same,cytotoxic activity in PC-3 (in words),[3],not active at all
same,cytotoxic activity in MCF-7 (in words),[4],not active at all
same,antiproliferative activity in L-929 (in words),[5],not active at all
same,GI50,"[5]; read-out: L-929 GI50, antiproliferative activity, L-929 mouse fibroblasts",> 66 µM
